Measured values: PMC13267291, “In vivo functional profiling and structural characterization of the human GLP1R A316T variant” (Science Advances, 2026)

How the values were obtained:
[1] = tested on: hGLP1R^A316T/+ versus hGLP1R^+/+ mice; experiment: IPGTT after GLP-1RA, HFHS-fed heterozygous mice; assay type: in vivo, mouse; settings: HFHS diet; 2 nmol/kg; n = 7; fig. S5G,H
Experimental: All animal procedures were approved by the British Home Office under the UK animals (Scientific Procedures) Act 1986 (Project License number PP7151519 to A. Martinez-Sanchez, Imperial College London, UK) and from the local ethical committee (Animal Welfare and Ethics Review Board) at the Central Biological Services unit of Imperial College London. Animals were housed in groups of up to four adult mice in individually ventilated cages under controlled conditions at 21° to 23°C with 12-hour:12-hour light-to-dark cycles (lights on at 07:00). Ad libitum access to water and feed was provided unless otherwise stated. Lean mice were fed a standard chow diet [RM1 (E); Special Diet Services]. For HFHS diet studies, animals were put on a 58 kcal % fat and sucrose diet (D12331, Research Diets Inc.) ad libitum for 10 to 14 weeks before experiments.
To examine acute and prolonged glycemic responses to GLP-1RAs, animals were fasted for 2 hours, starting at 8 a.m. on the morning of the experiments, before IPGTTs. GLP-1RAs were then coadministered at the indicated concentrations with 20% (w/v) D-glucose via intraperitoneal injection at weight-adjusted volumes. Baseline glucose readings were taken via tail venipuncture, and subsequent readings were taken at various time points after glucose ± GLP-1RA administration as for the OGTTs (0-hour acute IPGTTs). […]

[2] = tested on: SNAP/FLAG-hGLP1R^A316T versus ^WT; experiment: Insulin secretion in EndoC-βH3 GLP1R^-/--enriched cells; assay type: cell-based, human; settings: 15 mM glucose + 100 nM, 60 min; n = 4; Fig. 6C,D
Experimental: Purified mouse islets used for insulin secretion assays were treated in 24-well nonadherent plates. Eight islets were used per replicate with three technical replicates per condition. For acute studies, islets were preincubated for 1 hour in KRBH buffer containing 0.1% (w/v) bovine serum albumin (BSA) (10775835001, Roche) and 3 mM glucose before incubation with 11 mM glucose ± 100 nM GLP-1RAs or the GLP-1R antagonist exendin-9 in KRBH buffer in a shaking 37°C water bath (80 rpm) for 1 hour. For overnight studies, preincubation was carried out in RPMI 1640 medium containing FBS, P/S, and 3 mM glucose, followed by treatment with medium supplemented with 11 mM glucose ± GLP-1RAs for 16 hours. […] Insulin secretion assays with the human EndoC-βH3 cell line were performed following 3 weeks of treatment with 4-hydroxytamoxifen as above, followed by transduction with pAV-SNAP/FLAG-hGLP1R^WT or ^A316T adenoviruses, with insulin secretion assessed as previously described ([54]), with the following modifications: After preincubation with 0.5 mM glucose KRBH buffer, cells were stimulated with 15 mM glucose ± exendin-4 for 60 min. Total and secreted insulin samples from islets and cells were stored at −20°C until quantification using an Insulin Ultra-Sensitive HTRF kit (#62IN2PEG, Revvity) in a PHERAstar plate reader (BMG Labtech), according to the manufacturer’s instructions.

[3] = tested on: SNAP/FLAG-hGLP1R^A316T versus ^WT; experiment: Insulin secretion in transduced primary human islets; assay type: cell-based; settings: 11 mM glucose + 100 nM; n = 4; Fig. 6G,H

exendin-4
Desensitization 6 hours postagonist, A316T/+ versus +/+ [1]: significantly increased desensitization | Agonist-stimulated insulin secretory fold increases, A316T versus WT [2]: significantly reduced | Agonist-induced potentiation of insulin secretion, A316T versus WT [3]: near-significant loss
